Data: US6569894B1, “Arylalkylbenzofuran derivatives as melatonergic agents” (Bristol-Myers Squibb Company, priority 2001, dated 2003)

Experiments:
[1] = molecular target: T1, ML1a receptor (Homo sapiens, UniProt P48039); assay: Melatonergic receptor binding activity, 2-[125I]-iodomelatonin, ML1a; settings: membrane homogenates of NIH-3T3 cells, 37° C. for 1 hour
T1 construct: expressed in transfected cells; pcDNA3)
Method: (§1) Melatonergic Receptor Binding Activity
(§2) (a) TME=50 mM Tris buffer containing 12.5 mM MgCl2, and 2 mM EDTA, pH 7.4 at 37° C., with concentrated HCl.
(§3) (b) Wash buffer: 20 mM Tris base containing 2 mM MgCl2, pH 7.4 at room temperature.
(§4) (c) 10^−4 M melatonin (10^−5 M final concentration).
(§5) (d) 2-[^125I]-iodomelatonin, […] final concentration.
2. Membrane Homogenates: The melatonin ML1α receptor cDNA was subcloned into pcDNA3 and introduced into NIH-3T3 cells using Lipofectamine. Transformed NIH-3T3 cells resistant to geneticin (G-418) were isolated, and single colonies expressing high levels of 2-[^125I]-iodomelatonin binding were isolated. Cells are maintained in DMEM supplemented with 10% calf serum and G-418 (0.5 g/liter). Cells are grown to confluency in T-175 flasks, scraped using Hank's balanced salt solution, and frozen at −80° C. For preparing membrane homogenates, pellets are thawed on ice, and re-suspended in TME buffer in the presence of 10 μg/ml aprotinin and leupeptin, and 100 μM phenylmethylsulfonylfluoride. The cells were then homogenized using a dounce homogenizer, and centrifuged. The resulting pellet was re-suspended with dounce homogenizer in TME (supplemented with the above protease inhibitors) and frozen. On the day of assay, a small aliquot was thawed on ice and re-suspended in the ice cold TME (1:50-1:100 v/v) and held on ice until assayed.
(§6) 3. Incubation: 37° C. for 1 hour. Reaction is terminated by filtration. Filters were washed 3 times.
(§7) The compounds of the present invention have affinity for receptors of the endogenous pineal hormone, melatonin, as determined in a receptor binding assays described above in Tables I to V for the ML1a and ML1b (human) receptors. Melatonin is involved in the regulation of a variety of biological rhythms and exerts its biological effects via interaction with specific receptors. There is evidence that administration of melatonin agonists are of clinical utility in the treatment of various conditions regulated by melatonin activity. Such conditions include depression, jet-lag, work-shift syndrome, sleep disorders, glaucoma, some disorders associated with reproduction, cancer benign prostatic hyperplasia, immune disorders and neuroendocrine disorders.

[2] = molecular target: T2, ML1b receptor (Homo sapiens, UniProt P49286); assay: Melatonergic receptor binding activity, 2-[125I]-iodomelatonin, ML1b; settings: 37° C. for 1 hour
T2 construct: expressed in transfected cells
T2 sequence (P49286 1-362): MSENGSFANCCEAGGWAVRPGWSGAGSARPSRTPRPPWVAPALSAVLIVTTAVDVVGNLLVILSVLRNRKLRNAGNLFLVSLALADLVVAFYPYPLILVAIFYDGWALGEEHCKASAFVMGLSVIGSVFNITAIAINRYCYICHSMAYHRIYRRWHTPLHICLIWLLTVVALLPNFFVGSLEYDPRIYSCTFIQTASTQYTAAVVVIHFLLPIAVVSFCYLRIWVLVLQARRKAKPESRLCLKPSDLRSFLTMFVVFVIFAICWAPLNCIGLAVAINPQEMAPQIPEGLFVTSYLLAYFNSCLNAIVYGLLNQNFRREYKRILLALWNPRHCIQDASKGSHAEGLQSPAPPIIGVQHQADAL
Method: as §1, §2, §3, §4, §5, §6, §7

T1 sequence (P48039 whole entry): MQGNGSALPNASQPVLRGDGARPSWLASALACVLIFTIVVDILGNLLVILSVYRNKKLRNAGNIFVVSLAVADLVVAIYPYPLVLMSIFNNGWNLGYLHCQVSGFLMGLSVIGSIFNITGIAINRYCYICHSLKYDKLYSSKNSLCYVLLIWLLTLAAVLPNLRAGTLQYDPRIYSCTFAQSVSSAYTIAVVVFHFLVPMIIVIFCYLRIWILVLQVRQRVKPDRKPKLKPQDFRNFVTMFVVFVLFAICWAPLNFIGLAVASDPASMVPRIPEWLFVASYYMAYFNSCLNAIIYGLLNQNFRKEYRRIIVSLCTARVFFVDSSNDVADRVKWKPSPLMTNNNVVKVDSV

Molecule	melting point [°C]	IC50 ([1]; Table V) [nM]	IC50 ([2]; Table V) [nM]	IC50 ([1]; Table III) [nM]	IC50 ([2]; Table III) [nM]	also measured
CC(=O)NCCCc1cccc2c1C[C@H](CCCCc1ccccc1)O2 (stereo in doubt) [Example 1, N-[3-[2-(4-Phenylbutyl)-2,3-dihydrobenzofuran-4-yl]propyl]acetamide]	40 to 41	–	–	–	–	IC50 ([1]; Table I): < 10 nM; IC50 ([2]; Table I): 10 to 250 nM
O=C(NCCCc1cccc2c1C[C@H](CCCCc1ccccc1)O2)C1CC1 (stereo in doubt) [Example 5, N-[3-[2-(4-Phenylbutyl)-2,3-dihydrobenzofuran-4-yl]propyl]cyclopropanecarboxamide]	63 to 64	–	–	–	–	IC50 ([1]; Table I): < 10 nM; IC50 ([2]; Table I): 10 to 250 nM
O=C(NCCCc1cccc2oc(CCCCc3ccccc3)cc12)C1CC1 [Example 7, N-[3-[2-(4-Phenylbutyl)benzofuran-4-yl]propyl]cyclopropanecarboxamide]	70 to 71	–	–	–	–	IC50 ([1]; Table II): 10 to 250 nM; IC50 ([2]; Table II): 10 to 250 nM
CC(=O)NC[C@@H]1C[C@H]1c1cccc2c1C[C@@H](CCCCc1ccccc1)O2 [Example 42, N-({2-[(2R)-2-(4-Phenylbutyl)(2,3-dihydrobenzo[b]furan-4-yl)]-(1R,2R)cyclopropyl}methyl)acetamide]	65 to 66	< 10	< 10	–	–	–
CCCC(=O)NC[C@@H]1C[C@H]1c1cccc2c1C[C@@H](CCCCc1ccccc1)O2 [Example 44, N-({2-[(2R)-2-(4-Phenylbutyl)(2,3-dihydrobenzo[b]furan-4-yl)]-(1R,2R)cyclopropyl}methyl)butanamide]	–	< 10	< 10	–	–	–
CC(C)C(=O)NC[C@@H]1C[C@H]1c1cccc2c1C[C@@H](CCCCc1ccccc1)O2 [Example 45, N-({2-[(2R)-2-(4-Phenylbutyl)(2,3-dihydrobenzo[b]furan-4-yl)]-(1R,2R)cyclopropyl}methyl)-2-methylpropanamide]	–	10 to 250	10 to 250	–	–	–
O=C(NC[C@@H]1C[C@H]1c1cccc2c1C[C@@H](CCCCc1ccccc1)O2)C1CC1 [Example 46, N-({2-[(2R)-2-(4-Phenylbutyl)(2,3-dihydrobenzo[b]furan-4-yl)]-(1R,2R)cyclopropyl}methyl)cyclopropylcarboxamide]	–	< 10	10 to 250	–	–	–
CCNC(=O)NC[C@@H]1C[C@H]1c1cccc2c1C[C@@H](CCCCc1ccccc1)O2 [Example 47, N-({2-[(2R)-2-(4-Phenylbutyl)(2,3-dihydrobenzo[b]furan-4-yl)]-(1R,2R)cyclopropyl}methyl)(ethylamino)carboxamide]	69 to 70	10 to 250	10 to 250	–	–	–
CCNC(=O)NCC1CC1c1c(Cl)ccc2c1CC(CCCCc1ccccc1)O2 [Example 48, N-({2-[2R)-5-Chloro-2-(4-phenylbutyl)(2,3-dihydrobenzo[b]furan-4-yl)]-(1R,2R)cyclopropyl}methyl)(ethylamino)carboxamide]	126 to 128	10 to 250	10 to 250	–	–	–
N-3-(2-(2-Phenyleth-1-yl)benzofuran-3-yl)prop-1-yl Acetamide [Example 23]	–	–	–	10 to 250	10 to 250	–
N-3-(2-(2-Phenyleth-1-yl)benzofuran-3-yl)prop-1-yl Butyramide [Example 25]	–	–	–	10 to 250	10 to 250	–
N-3-(2-(2-Phenyleth-1-yl)benzofuran-3-yl)prop-1-yl Propanamide [Example 24]	–	–	–	10 to 250	10 to 250	–
N-3-(2-(2-Phenyleth-1-yl)benzofuran-3-yl)prop-1-yl-cyclopropanecarboxamide [Example 26]	–	–	–	10 to 250	10 to 250	–
N-3-(2-(3-Phenylprop-1-yl)benzofuran-3-yl)prop-1-yl Acetamide [Example 19]	–	–	–	< 10	10 to 250	–
N-3-(2-(3-Phenylprop-1-yl)benzofuran-3-yl)prop-1-yl Butyramide [Example 21]	–	–	–	10 to 250	> 250	–
N-3-(2-(3-Phenylprop-1-yl)benzofuran-3-yl)prop-1-yl Cyclopropanecarboxamide [Example 22]	–	–	–	10 to 250	> 250	–
N-3-(2-(3-Phenylprop-1-yl)benzofuran-3-yl)prop-1-yl Propanamide [Example 20]	–	–	–	10 to 250	> 250	–
N-({2-[(2R)-5,7-Dichloro-2-(4-phenylbutyl)(2,3-dihydrobenzo[b]furan-4-yl)](1R,2R)cyclopropyl}methyl)butanamide [Example 49]	–	> 250	10 to 250	–	–	–
N-{3-[3-Chloro-2-(4-phenylbutyl)benzo[b]furan-4-yl]-propyl}ethoxycarboxamide [Example 27]	–	–	–	> 250	> 250	–
